These results are taken from PubChem BioAssay (NCI).

Assay in all cases: NCI-60 cell line screen, 48 h
Assay [1] relates to KM12 colon.
Assay [2] deals with EKVX NSCLC.
In assay [3] the test system is HT29 colon.
In assay [4] the test system is 786-0 renal.
Assay [5] has as its system MALME-3M melanoma.
In assay [6] the test system is OVCAR-8 ovarian.
In assay [7] the test system is NCI-H522 lung.
Assay [8] deals with MDA-MB-435.

Several values for one entry are separate records, joined by “and”; a condition that tells them apart may be missing. Identical values can stand only once.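 Values below derive from 48-hour exposures of cells grown in 96-well plates, with endpoints linearly interpolated between the two concentrations bracketing the appropriate inhibition level. GI50 = concentration required for 50% inhibition of growth. TGI is the concentration that stops growth completely.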 Bounds are passed on as bounds.

Regarding `Nc1n[nH]c(CCc2nc(N)n[nH]2)n1`, the TGI in assay [1], in assay [2], in assay [3], in assay [4], in assay [5] and in assay [6] was above 100 µM in each case. In assay [7], the TGI is above 100 µM.

Turning to `Cc1cc2c(C)n(Cc3ccc(Cl)cc3Cl)nc2c(C(=O)O)c1C`, the TGI in assay [2], in assay [3], in assay [4], in assay [5] and in assay [6] was above 100 µM each time.

Consider `CC1(C)OC(=O)C=C([O-])O1.CC1(C)OC(=O)C=C([O-])O1.CC[O-].CC[O-].[Ti+4]`, for which the GI50 in assay [1], in assay [2], in assay [3], in assay [4], in assay [5] and in assay [6] was above 100 µM each time. Also, the GI50 in assay [7] was above 100 µM. For the same compound, the TGI in assay [1], in assay [2], in assay [3], in assay [4], in assay [5] and in assay [6] was above 100 µM each time. In assay [7], this compound yielded a TGI above 100 µM.

In the case of `O=C1c2nc3n(c2C(=O)c2c1nc1n2CCC1)CCC3`, the GI50 in assay [1] was 5.63 µM; in assay [3], 5.14 µM; in assay [4], 9.25 µM; in assay [5], 2 µM; in assay [6], 7.87 µM. The TGI in assay [1] was 17 µM; in assay [2], 31.2 µM; in assay [3], 10.8 µM; in assay [4] it was above 47.8 µM; in assay [5], 3.54 µM and 2.17 µM; in assay [8] it was 3.48 µM. Moreover, the results for the TGI in assay [6] and in assay [7] were 22.5 µM and 19.5 µM, respectively.

For the compound `O=C(Nc1ccn(CCI)c(=O)n1)c1ccccc1`, the TGI in assay [1], in assay [2], in assay [3], in assay [4], in assay [5] and in assay [6] was above 100 µM in each case. This compound showed a TGI in assay [7] above 100 µM.

Take `CC1=C(C(=O)Nc2ccc([N+](=O)[O-])cc2)C(c2ccccc2F)C(C(=O)Nc2ccc([N+](=O)[O-])cc2)=C(C)N1`: the TGI in assay [1] was 53.9 µM; in assay [2], above 100 µM; in assay [3] it was 95.2 µM; in assay [4] it was above 100 µM; in assay [5], 42.6 µM; in assay [6] it was above 100 µM. Also, in assay [7], the TGI amounted to 35 µM.

On to `CCCCCCC(/C=N/O)C(C)(O)CCC` (stereo not given), for which the TGI in assay [1], in assay [2], in assay [3], in assay [4], in assay [5] and in assay [6] was above 100 µM throughout. In assay [7], this compound showed a TGI above 100 µM.

`O=C(O)C1=C(C(=O)Nc2ccc(NC(=O)C3=C(C(=O)O)C4C=CC3C4)cc2)C2C=CC1C2`: the TGI in assay [1], in assay [2], in assay [3], in assay [4], in assay [5] and in assay [6] was above 100 µM in each case.

As for `CCOC(=O)C1=C(Nc2ccc(Cl)c(Cl)c2)OC/C1=N\NS(=O)(=O)c1ccc(C)cc1`, the TGI is above 100 µM in assay [1]; above 100 µM in assay [2]; above 100 µM in assay [4]; above 100 µM in assay [5]; above 100 µM in assay [6]; 74.8 µM in assay [7].

On to `COC(=O)C1=CC2OC1(C)CCC2=O` (stereo not given), for which the TGI in assay [1], in assay [2], in assay [3], in assay [4], in assay [5] and in assay [6] was above 100 µM in each case. For the same compound, the TGI in assay [7] is above 100 µM.

With `O=[N+]([O-])c1ccc(Cl)cc1C1SCc2nc3ccccc3n21` (stereo not given), the TGI in assay [1], in assay [2], in assay [3], in assay [4], in assay [5] and in assay [6] was above 100 µM in each case. The compound also came in with a TGI in assay [7] of 80.1 µM.

For the compound `Cc1ccccc1-n1c(C)nc(-c2ccccc2)cc1=O`, the TGI in assay [1], in assay [2], in assay [3], in assay [4], in assay [5] and in assay [6] was above 100 µM each time. Further, the TGI in assay [7] is above 100 µM.

Consider `COC1OC2COC(c3ccccc3)OC2C(O)C1Br` (stereo not given), for which the TGI in assay [1], in assay [3], in assay [4], in assay [5], in assay [6] and in assay [7] was above 100 µM in each case.

As for `COc1ccc2c(c1OC)C(=O)c1cnccc1C2=O`, the TGI in assay [1], in assay [2], in assay [3], in assay [4], in assay [5] and in assay [6] was above 100 µM throughout. The same compound yielded a TGI in assay [7] above 100 µM.

For `O=C(NS(=O)(=O)c1ccccc1)C(Cc1ccccc1)C(Cc1ccccc1)C(=O)NS(=O)(=O)c1ccccc1` (stereo not given), the TGI in assay [1], in assay [2], in assay [3], in assay [4], in assay [5] and in assay [6] was above 100 µM in each case. Further, the TGI in assay [7] is above 100 µM.

For `COC(=O)CCC(=O)NC1C2CC3CC(C2)CC1C3` (stereo not given), the TGI in assay [1], in assay [2], in assay [3], in assay [4], in assay [5] and in assay [6] was above 100 µM throughout. The compound also displayed a TGI in assay [7] above 100 µM.
